Literature values, collected in US20220347165A1, “EFFERVESCENT ORAL COMPOSITION” (NICOVENTURES TRADING LIMITED, priority 2021, published 2022).

Experiments:
[1] = when isolated; isomerizes to trans-bixin

CC(/C=C/C=C(C)/C=C/C(=O)O)=C\C=C\C=C(C)\C=C\C=C(C)\C=C\C(=O)O (stereo in doubt) [norbixin, (2E,4E,6E,8E,10E,12E,14E,16E,18E)-4,8,13,17-tetramethylicosa-2,4,6,8,10,12,14,16,18-nonaenedioic acid]
solubility in water: water soluble

COC(=O)/C=C/C(C)=C\C=C\C(C)=C\C=C\C=C(C)\C=C\C=C(C)\C=C\C(=O)O [bixin, (2E,4E,6E,8E,10E,12E,14E,16Z,18E)-20-methoxy-4,8,13,17-tetramethyl-20-oxoicosa-2,4,6,8,10,12,14,16,18-nonaenoic acid]
solubility in fats and alcohols (fats and alcohols): soluble in fats and alcohols | solubility in water: insoluble in water | chemical stability [1]: chemically unstable when isolated
